Columns and labels:
[1] = test system: human foetal small bowel xenografts; assay: C.B-17 SCID mouse human intestinal xenotransplant model, Treg trafficking; assay type: in vivo
Description: Mice are injected with anti-asialo GM1 antibody at day −2 prior to transfer in order to deplete natural killer (NK) cells. On the day of Treg transfer, mice were treated with Tregs that were either expanded with Rapamycin alone or with the addition of RAR568. Mice also received 1000IU of rhlL-2 IP on the day of Treg transfer, to support the Treg in circulation. After three days in circulation, the presence of CFSE labelled Tregs was assessed by FACS in digested xenograft samples and immunofluoresence on frozen sections. […] Induction of α4β7 is functionally relevant in vivo (e) Control XG, no Tregs, (f) XG from mouse treated with Rapa Tregs (g) XG from mouse treated with Rapa+RAR568 Tregs.
The C.B-17 SCID mouse human intestinal xenograft model has been previously described^28,29. Institutional Review Board (IRB) and Institutional Animal Care and Use Committee (IACUC) approvals were obtained prospectively (Ethics Committee for Animal Experimentation, Hebrew University of Jerusalem; MD-11-12692-4 and the Helsinki Committee of the Hadassah University Hospital; 81-23/04/04). Tregs were labelled with CFSE (Invitrogen) prior to transfer, as per manufacturer's instructions. Xenografts were processed as per LPMC digestion protocol. CFSE positive cells were detected by flow cytometry. Additionally, CFSE positive cells were detected by immunofluorescence on frozen sections from treated xenografts.
Fresh xenograft sections were fixed and stored in OCT. Fixed cryostat sections were blocked with 20% fetal calf serum (FCS) and stained with rat anti human CD45 (Invitrogen) and mouse antihuman FOXP3 (Biolegend), followed by donkey anti-rat AF594 (Invitrogen) and donkey anti-mouse NL637 (RnD Systems).
To assess if the induction of α4β7 was functionally relevant in vivo, cells treated with RAR568 or cells expanded under standard conditions were fluorescently labelled and transferred into a SCID mouse xenografted with human fetal intestinal small bowel by intra-venous injection. Inflammation was induced in the xenografts with Mycobactrium Avium Paratuberculosis (MAP). […]

Effector T cells (Teff) = assay: Treg suppression assay (proliferation of CFSE-labelled Teff); assay type: cell-based, human; settings: lowest (8:1) Teff:Treg titration, FIG. 2e
Description: Effector T cells (Teff) were labelled with carboxyfluorescein succinimidyl ester (CFSE, Invitrogen) according to standard protocols. Cells were washed with phosphate buffered saline (PBS) to remove excess protein. Cells were then incubated with a 1 μM/L CFSE solution in the dark at room temperature for 4 minutes. The reaction was then quenched with 9 ml of complete medium.
Teff were activated with anti-CD3/anti-CD28 micro beads at a bead: Teff ratio of 0.02:1. 1×10^5 Teff were then cultured either alone or with Tregs in serial dilutions. The ratios of Teff: Treg were 1:1, 2:1, 4:1, and 8:1. This was done in X-VIVO-15 and proliferation rates were assessed by flow cytometry after 5 days of incubation.
Percentage suppression (S) of proliferation was calculated using the following formula:
Where c=percentage of proliferating precursors in the presence of Tregs and d=percentage of proliferating precursors in the absence of Tregs.

CD62L on Tregs = assay: CD62L expression following ex vivo expansion; assay type: cell-based, human; settings: FIG. 9
Description: To address the balance between regulatory and effector T cells in the lamina propria of patients with CD, we sought to develop a highly suppressive, phenotypically stable population of autologous ex vivo expanded Tregs that were licensed to traffic to the gut by high level expression of α4β7. These cells could then be utilized as an autologous cell-based therapy for CD. We compared the efficacy of ATRA with RAR568 at inducing α4β7, to determine which agent would be more suitable for downstream application in a clinical trial of Treg therapy for CD. As previously defined^22, our standard culture conditions used the CD4^+CD25^hiCD127^loCD45RA^+ nïave Treg subset, cultured in the presence of rapamycin (RAPA) and high dose IL-2. […] Additionally, cells cultured in the presence of RAR568 cumulatively expressed more α4β7 than those cultured in the presence of ATRA (95.89±1.93 vs 74.21±25.89, p=0.024; FIG. 2b). […] The expression of CD62L, required for homing to the lymph nodes and the effective interaction between integrin α4β7 and its ligand MAdCAM-1 was maintained following ex vivo expansion, irrespective of retinoid treatment (FIG. 9).

Ex vivo expanded Tregs = assay: IL-17 and IFNγ production under pro-inflammatory cytokine challenge (ELISA); assay type: cell-based, human; settings: Tregs expanded ex vivo in the presence of the agonist, FIG. 2f
Description: Cytokine concentrations were measured using the Ready-SET-Go sandwich ELISA kits from eBioscience.
Ex vivo expanded Tregs were activated with CD3/CD28 beads at a 1:20 ratio and cultured at 10^6cells/m1 in X-VIVO for 5 days at 37° C./5% CO2, supplemented with the following cytokine cocktail: A) IL-2 (10 IU/mL, Proleukin); (B) IL-2, IL-1 (10 ng/mL), IL-6 (4 ng/mL) and transforming growth factor-β (TGF-β (5 ng/mL), IL-21 (25 ng/mL), IL-23 (25 ng/mL) (all R&D Systems). Supernatant IL-17 and interferon gamma (IFNγ) concentrations were measured by ELISA.

RAR γ = molecular target: T1, RAR γ (Homo sapiens, UniProt P13631); assay: Selectivity profile against human RARs (RARγ); assay type: biochemical
T1 sequence (P13631 1-454): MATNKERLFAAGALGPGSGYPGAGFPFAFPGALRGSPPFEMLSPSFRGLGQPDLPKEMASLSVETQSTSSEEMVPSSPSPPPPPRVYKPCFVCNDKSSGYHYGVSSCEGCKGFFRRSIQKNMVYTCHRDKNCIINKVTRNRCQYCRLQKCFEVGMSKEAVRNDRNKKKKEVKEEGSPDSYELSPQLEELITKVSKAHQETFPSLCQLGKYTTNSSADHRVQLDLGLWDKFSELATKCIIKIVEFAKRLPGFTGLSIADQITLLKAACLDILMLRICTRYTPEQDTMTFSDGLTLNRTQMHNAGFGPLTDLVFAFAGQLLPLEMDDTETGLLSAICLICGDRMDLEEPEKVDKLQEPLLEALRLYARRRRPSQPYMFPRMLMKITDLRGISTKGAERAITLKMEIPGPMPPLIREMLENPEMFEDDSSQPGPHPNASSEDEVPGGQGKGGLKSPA

selectivity over RAR γ (RAR γ): > 13,000 fold
Compound: CCOc1c(Cl)cc(C(=O)Nc2ccc(C(=O)O)c(C)c2)cc1OC(C)C [RAR568]
Treg trafficking to xenografts ([1]; 72 hours following i.v. transfer of agonist-treated Tregs, compared to Tregs expanded under standard conditions): significantly more likely to traffic to xenografts | Treg trafficking to inflamed xenografts ([1]; MAP-induced inflammation, agonist-treated Tregs vs standard conditions): significantly more RAR568-treated cells trafficked to the inflamed xenografts | presence of CFSE labelled FOXP3+ Tregs in cryosections from inflamed xenografts ([1]; immunofluorescence, FIG. 5g): evident | Suppressive ability of expanded Tregs (Effector T cells (Teff)): highly suppressive even at the lowest (8:1) titration | expression of CD62L following expansion (CD62L on Tregs): not affected | IFNγ production following pro-inflammatory cytokine challenge (Ex vivo expanded Tregs): did not produce | IL-17 production following pro-inflammatory cytokine challenge (Ex vivo expanded Tregs): did not produce

From patent US20220062340A1, “IMMUNOTHERAPEUTIC METHODS AND COMPOSITIONS” (KING'S COLLEGE LONDON, priority 2018, published 2022)
